Test results published in patent US20220257583A1, “Compositions and Methods for the Treatment of Intracranial Diseases” (Duke University, priority 2019, published 2022).

Assays:
[1] = target: T1, β-arrestin 2 recruitment to activated β2V2R (Homo sapiens, UniProt P32121); assay: DiscoveRx β-arrestin 2 recruitment assay (β2V2R, isoproterenol stimulation); format: cell-based; settings: 25 minutes pretreatment
T1 construct: host or cells: U2OS
Experimental: FIG. 13: The first 40 initial hits from the screening of a structurally diverse, drug-like compound (DDLC) library containing more than 3,500 unique molecules with binding activity against purified β-arrestin 2 were evaluated for β-arrestin 2 recruitment by DiscoveRx assay. DiscoveRx cells expressing chimeric β2-adrenergic receptor (β2AR) with C-terminal tail from vasopressin receptor 2 (β2V2R) that is known to bind β-arrestin 2 very tightly were employed in this assay. The DiscoveRx cells were pretreated with candidate compounds at 50 μM or DMSO (control) for 25 minutes followed by stimulation with isoproterenol (10 nM). Compound B29 inhibits more than 75% of β-arrestin 2 activity (red-dashed rectangle) induced by isoproterenol which is a receptor agonist (red bar graph).
FIG. 14: β-arrestin 2 recruitment to activated β2V2R. Testing B29 further, the DiscoveRx cells were pretreated with compound B29 at 1, 10, 50 μM or DMSO (control) for 25 minutes followed by stimulation with isoproterenol at various concentrations.
FIG. 20 is a graphic representation showing the effect of putative βarr2 binding compounds (21 hits) on βarr2 recruitment to agonist activated GPCR. DiscoveRx-U2OS cells exogenously expressing βarr2 and β2V2R were treated with each putative βarrestin binding compound at 50 μM for 30 min and then stimulated with agonist isoproterenol (10 nM) to induce recruitment of βarr. […]

[2] = tested on: S1P1 on T cells; assay: S1P1 expression on T cells exposed to compound; format: cell-based
[3] = tested on: intracranial CT2A glioma; assay: Survival of mice bearing intracranial CT2A glioma; format: in vivo; settings: IC CT2A mice, monotherapy
Experimental: FIGS. 6A-6E: Hindering S1P1 internalization abrogates T-cell sequestration in bone marrow. FIG. 6A: Relative sequestration of adoptively transferred CFSE-labeled T-cells within the bone marrow of CT2A IC recipient mice at 2 h (left) or 24 h (right) after transfer. As indicated, transferred cells were splenocytes either from control C57BL/6 donors (control) or from S1P1 stabilized knock-in (S1P1 KI) donors (n=5 recipient mice per group). […] FIG. 6B: T-cell counts in the bone marrow of n=10 intracranial CT2A-bearing wild-type C57BL/6 or n=11 S1P1 KI mice. Counts were assessed at 18 d following tumor implantation and are shown relative to baseline counts inn=6 tumor-naïve control wild-type or n=6 tumor-naïve S1P1 KI mice. Cumulative data from three experiments are depicted in FIG. 6B and FIG. 6C, Intracranial CT2A tumors were harvested from n=6 wild-type C57BL/6 (WT) or n=6 S1P1 KI mice at 18 d following tumor implantation. TILs were assessed by flow cytometry and the number of total T-cells per gram of tumor quantified. FIG. 6D: The frequency of activated effector) (CD44^hiCD62L^lo) T-cells in intracranial CT2A tumors from the same n=6 wild-type C57BL/6 (WT) or n=6 S1P1 KI mice in FIG. 6C was also quantified. […] P values in and were determined by two-tailed, unpaired Student's t-test. Survival in FIG. 6E was assessed by two-tailed, generalized Wilcoxon test. […]

[4] = tested on: T-cells in IC CT2A-bearing mice; assay: Bone marrow and blood T-cell counts in IC CT2A-bearing mice; format: in vivo; settings: intraperitoneally every 3 days (Days 3-18), counts 18 days after implantation
Source text: FIGS. 6F-6J: FIG. 6F: Representative flow cytometry plot depicting the frequency of S1P1 on the surface of T-cells in the bone marrow of C57BL/6 mice and S1P1 KI bearing IC CT2A tumor. FIG. 6G: S1P1 KI mice were implanted with IC CT2A tumors and treated with anti (α)-PD-1, 4-1BB agonist, or the combination of both (n=8 per group). FIG. 6H and FIG. 6I: Bone marrow (FIG. 6H) and blood (FIG. 6I) T-cell counts in n=8 control mice and n=8 IC CT2A-bearing mice administered control treatment or G-CSF intraperitoneally every 3 days following tumor implantation (Days 3-18). Counts were assessed 18 days following tumor implantation. FIG. 6J: IC CT2A IC mice were administered G-CSF, 4-1BB agonist, or the combination regimen of both drugs (n=8 per group). […] Data in FIG. 6H and FIG. 6I are shown as mean±s.e.m. P values and were determined by two-tailed, unpaired Student's t-test. Survivals in FIG. 6G and FIG. 6J were assessed by two-tailed generalized Wilcoxon test. P values for overall comparison are depicted. […]
Spleen, thymus, cervical lymph nodes, and long bones of the legs (femur and tibia) were collected at defined and/or humane endpoints, in accordance with protocol. […] Briefly, tissues were processed in RPMI, minced into single cell suspensions, cell-strained, counted, stained with antibodies, and analyzed via flow cytometry. […]

T1 sequence (P32121 whole entry): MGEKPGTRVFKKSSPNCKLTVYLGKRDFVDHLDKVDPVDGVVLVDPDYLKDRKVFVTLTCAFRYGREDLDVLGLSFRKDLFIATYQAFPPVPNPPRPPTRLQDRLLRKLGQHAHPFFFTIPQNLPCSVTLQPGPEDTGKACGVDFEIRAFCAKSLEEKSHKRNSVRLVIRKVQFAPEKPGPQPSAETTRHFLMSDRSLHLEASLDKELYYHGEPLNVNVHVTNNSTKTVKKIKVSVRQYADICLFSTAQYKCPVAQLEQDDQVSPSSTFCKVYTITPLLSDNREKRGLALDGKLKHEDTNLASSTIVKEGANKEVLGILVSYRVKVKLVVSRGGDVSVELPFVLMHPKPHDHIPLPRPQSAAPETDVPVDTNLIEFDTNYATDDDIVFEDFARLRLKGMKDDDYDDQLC

For `COc1cc(Cc2nccc3cc(OC)c(OC)cc23)c(C(C)=O)cc1OC` [Compound B29, 1-(2-((6,7-dimethoxyisoquinolin-1-yl)methyl)-4,5-dimethoxyphenyl)ethan-1-one], the inhibition at 50 µM ([1]; compound 50 μM, isoproterenol 10 nM, read-out: inhibition of β-arrestin 2 activity induced by isoproterenol) was over 75% and the “effect on isoproterenol titration curves of β-arrestin 2 recruitment” value ([1]; compound at 1, 10, 50 μM, isoproterenol at various concentrations) was “shifts the potency of agonist rightward and decreases maximal response in a dose dependent fashion”.

`CN(C)c1n/c(=N/Cc2ccco2)ss1` [Compound C30, (Z)-3-((furan-2-ylmethyl)imino)-N,N-dimethyl-3H-1,2,4-dithiazol-5-amine] was tested, and the “S1P1 expression level on T cells” value ([2]; higher concentrations of compound) was “higher levels of S1P1 expression” and the “ability to inhibit BARR” value ([2]; initially screened compound, FIG. 12) was “inhibit BARR”.

B1: G-CSF: granulocyte colony-stimulating factor, administered intraperitoneally every 3 days (protein, UniProt P09919 31-207, looked up)
Granulocyte …: TPLGPASSLPQSFLLKCLEQVRKIQGDGAALQEKLVSECATYKLCHPEELVLLGHSLGIPWAPLSSCPSQALQLAGCLSQLHSGLFLYQGLLQALEGISPELGPTLDTLQLDVADFATTIWQQMEELGMAPALQPTQGAMPAFASAFQRRAGGVLVASHLQSFLEVSYRVLRHLAQP
For B1, the survival [3] was “did not to consistently impact survival”, the “T-cell lymphopenia (blood T-cell counts)” value [4] was “reversed” and the “bone marrow T-cell counts” value [4] was “decreased”.
